Assay results: the supplement of paper PMC11451515

Columns and labels:
Conditions in all cases: 48 h
[1] = system: NOMO1; test: cell viability relative to DMSO control; higher = less cytotoxic
Summary of the method: (§1)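 Viability values are per-plate percentages of DMSO wells, with background from cell-free wells. Library compounds in DMSO were pin-dosed, in an 11-point threefold series from 47 μM to 0.79 nM, onto NOMO1 or SEM (500 cells/well) or P12-Ichikawa (1000 cells/well) leukemia cells in 1536-well plates (5 μl). Those cells had been adapted for at least four passages in each medium, and CellTiter-Glo One luminescence was read after 48 h at 37°C.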

[2] = system: P12-Ichikawa; test: as above
Summary of the method: as §1

[3] = system: SEM cells; test: as above
Summary of the method: as §1

[4] = system: NOMO1; test: AUC of viability dose-response curve (% viability x log10 dose units); higher = less sensitive
Summary of the method: (§2)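 Leukemia cells adapted to each medium were seeded in 1536-well plates (500 or 1000 cells/well) and given library compounds in DMSO for 48 h at 37°C. The 11 threefold doses spanned 47 μM to 0.79 nM, and CellTiter-Glo One luminescence was normalised per plate to DMSO and cell-free wells before four-parameter log-logistic fitting on log10 dose. Area under the curve was integrated with the trapezoidal rule, scaling curves above full viability and removing curves that failed quality control.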

[5] = system: P12-Ichikawa; test: as above
Summary of the method: as §2

[6] = system: SEM cells; test: as above
Summary of the method: as §2

[7] = HPLM + 10% dialyzed FBS, 0.000781 µM
[8] = HPLM + 10% dialyzed FBS, 0.00234 µM
[9] = HPLM + 10% dialyzed FBS, 0.00702 µM
[10] = HPLM + 10% dialyzed FBS, 0.0211 µM
[11] = HPLM + 10% dialyzed FBS, 0.0632 µM
[12] = HPLM + 10% dialyzed FBS, 0.19 µM
[13] = HPLM + 10% dialyzed FBS, 0.569 µM
[14] = HPLM + 10% dialyzed FBS, 1.71 µM
[15] = HPLM + 10% dialyzed FBS, 5.12 µM
[16] = HPLM + 10% dialyzed FBS, 15.4 µM
[17] = HPLM + 10% dialyzed FBS, 46.1 µM
[18] = RPMI 5 mM glucose + 10% FBS, 0.000781 µM
[19] = RPMI 5 mM glucose + 10% FBS, 0.00234 µM
[20] = RPMI 5 mM glucose + 10% FBS, 0.00702 µM
[21] = RPMI 5 mM glucose + 10% FBS, 0.0211 µM
[22] = RPMI 5 mM glucose + 10% FBS, 0.0632 µM
[23] = RPMI 5 mM glucose + 10% FBS, 0.19 µM
[24] = RPMI 5 mM glucose + 10% FBS, 0.569 µM
[25] = RPMI 5 mM glucose + 10% FBS, 1.71 µM
[26] = RPMI 5 mM glucose + 10% FBS, 5.12 µM
[27] = RPMI 5 mM glucose + 10% FBS, 15.4 µM
[28] = RPMI 5 mM glucose + 10% FBS, 46.1 µM
[29] = RPMI 5 mM glucose + 10% dialyzed FBS, 0.000781 µM
[30] = RPMI 5 mM glucose + 10% dialyzed FBS, 0.00234 µM
[31] = RPMI 5 mM glucose + 10% dialyzed FBS, 0.00702 µM
[32] = RPMI 5 mM glucose + 10% dialyzed FBS, 0.0211 µM
[33] = RPMI 5 mM glucose + 10% dialyzed FBS, 0.0632 µM
[34] = RPMI 5 mM glucose + 10% dialyzed FBS, 0.19 µM
[35] = RPMI 5 mM glucose + 10% dialyzed FBS, 0.569 µM
[36] = RPMI 5 mM glucose + 10% dialyzed FBS, 1.71 µM
[37] = RPMI 5 mM glucose + 10% dialyzed FBS, 5.12 µM
[38] = RPMI 5 mM glucose + 10% dialyzed FBS, 15.4 µM
[39] = RPMI 5 mM glucose + 10% dialyzed FBS, 46.1 µM
[40] = RPMI 5 mM glucose + 10% dialyzed FBS

For `COc1ccc(C[C@@H](C)[C@@H](C)Cc2ccc(OC)c(OC)c2)cc1OC`, the cell viability [1, 7] was 92.1%, the cell viability [1, 8] was 94.8% and the cell viability [1, 9] was 107%. For the same compound, the cell viability [1, 10] was 112%, the cell viability [1, 11] was 93.5% and the cell viability [1, 12] was 75.5%. The cell viability [1, 13] was 68%, the cell viability [1, 14] was 53.7% and the cell viability [1, 15] was 16.6%. For the same compound, the cell viability [1, 16] was 17.8%, the cell viability [1, 17] was 13.8% and the cell viability [1, 18] was 87.3%. It also gave a cell viability [1, 19] of 93.7%, a cell viability [1, 20] of 88.6% and a cell viability [1, 21] of 100%. It also gave a cell viability [1, 22] of 86.3%, a cell viability [1, 23] of 85.1% and a cell viability [1, 24] of 74.9%. The cell viability [1, 25] was 71.6%, the cell viability [1, 26] was 8.17% and the cell viability [1, 27] was 6.56%. For the same compound, the cell viability [1, 28] was 5.76%, the cell viability [1, 29] was 84% and the cell viability [1, 30] was 80.2%. For the same compound, the cell viability [1, 31] was 97.4%, the cell viability [1, 32] was 97.6% and the cell viability [1, 33] was 95.3%. It also gave a cell viability [1, 34] of 89.6%, a cell viability [1, 35] of 82.4% and a cell viability [1, 36] of 69.2%. The cell viability [1, 37] was 21.4%, the cell viability [1, 38] was 11.1% and the cell viability [1, 39] was 7.7%. The cell viability [2, 7] was 92.6%, the cell viability [2, 8] was 105% and the cell viability [2, 9] was 102%. For the same compound, the cell viability [2, 10] was 110%, the cell viability [2, 11] was 99.4% and the cell viability [2, 12] was 102%. It also gave a cell viability [2, 13] of 97.7%, a cell viability [2, 14] of 83% and a cell viability [2, 15] of 6.15%. For the same compound, the cell viability [2, 16] was 5.92%, the cell viability [2, 17] was 2.61% and the cell viability [2, 18] was 97%. For the same compound, the cell viability [2, 19] was 103%, the cell viability [2, 20] was 98.3% and the cell viability [2, 21] was 110%. The cell viability [2, 22] was 111%, the cell viability [2, 23] was 99.7% and the cell viability [2, 24] was 92.4%. For the same compound, the cell viability [2, 25] was 81%, the cell viability [2, 26] was 4.82% and the cell viability [2, 27] was 4.04%. For the same compound, the cell viability [2, 28] was 2.42%, the cell viability [2, 29] was 95.4% and the cell viability [2, 30] was 102%. The cell viability [2, 31] was 105%, the cell viability [2, 32] was 107% and the cell viability [2, 33] was 104%. The cell viability [2, 34] was 90.6%, the cell viability [2, 35] was 93.4% and the cell viability [2, 36] was 81.9%. It also gave a cell viability [2, 37] of 6.68%, a cell viability [2, 38] of 4.98% and a cell viability [2, 39] of 2.21%. The cell viability [3, 7] was 73.5%, the cell viability [3, 8] was 93.2% and the cell viability [3, 9] was 85.2%. For the same compound, the cell viability [3, 10] was 92.7%, the cell viability [3, 11] was 96% and the cell viability [3, 12] was 94.9%. It also gave a cell viability [3, 13] of 91.8%, a cell viability [3, 14] of 83.2% and a cell viability [3, 15] of 19%. For the same compound, the cell viability [3, 16] was 16.3%, the cell viability [3, 17] was 8.54% and the cell viability [3, 18] was 80.6%. It also gave a cell viability [3, 19] of 104%, a cell viability [3, 20] of 102% and a cell viability [3, 21] of 111%. It also gave a cell viability [3, 22] of 106%, a cell viability [3, 23] of 120% and a cell viability [3, 24] of 93.3%. It also gave a cell viability [3, 25] of 82.4%, a cell viability [3, 26] of 18.7% and a cell viability [3, 27] of 16.7%. It also gave a cell viability [3, 28] of 4.5%, a cell viability [3, 29] of 76.3% and a cell viability [3, 30] of 97.7%. It also gave a cell viability [3, 31] of 88.9%, a cell viability [3, 32] of 91.7% and a cell viability [3, 33] of 88.9%. The cell viability [3, 34] was 83.7%, the cell viability [3, 35] was 81.1% and the cell viability [3, 36] was 74%. For the same compound, the cell viability [3, 37] was 18.3%, the cell viability [3, 38] was 14.9% and the cell viability [3, 39] was 4%. For the same compound, the “AUC of viability dose-response curve” value ([4]; HPLM + 10% dialyzed FBS) was 326, the “AUC of viability dose-response curve” value ([4]; RPMI 5 mM glucose + 10% FBS) was 315 and the “AUC of viability dose-response curve” value [4, 40] was 328. The “AUC of viability dose-response curve” value ([5]; HPLM + 10% dialyzed FBS) was 355, the “AUC of viability dose-response curve” value ([5]; RPMI 5 mM glucose + 10% FBS) was 353 and the “AUC of viability dose-response curve” value [5, 40] was 354. The “AUC of viability dose-response curve” value ([6]; HPLM + 10% dialyzed FBS) was 336, the “AUC of viability dose-response curve” value ([6]; RPMI 5 mM glucose + 10% FBS) was 364 and the “AUC of viability dose-response curve” value [6, 40] was 320.
For `CC(C)(C)C(=O)Oc1ccc2c(c1)nc(NC(=O)c1cccc([N+](=O)[O-])c1)n2CCCO`, the cell viability [2, 7] was 120%, the cell viability [2, 8] was 123% and the cell viability [2, 9] was 118%. It also gave a cell viability [2, 10] of 119%, a cell viability [2, 11] of 115% and a cell viability [2, 12] of 119%. For the same compound, the cell viability [2, 13] was 116%, the cell viability [2, 14] was 106% and the cell viability [2, 15] was 109%. It also gave a cell viability [2, 16] of 111%, a cell viability [2, 17] of 106% and a cell viability [2, 29] of 118%. For the same compound, the cell viability [2, 30] was 122%, the cell viability [2, 31] was 121% and the cell viability [2, 32] was 117%. It also gave a cell viability [2, 33] of 118%, a cell viability [2, 34] of 112% and a cell viability [2, 35] of 115%. For the same compound, the cell viability [2, 36] was 103%, the cell viability [2, 37] was 111% and the cell viability [2, 38] was 97.4%. The cell viability [2, 39] was 89.4%, the cell viability [3, 7] was 107% and the cell viability [3, 8] was 122%. The cell viability [3, 9] was 118%, the cell viability [3, 10] was 119% and the cell viability [3, 11] was 110%. The cell viability [3, 12] was 120%, the cell viability [3, 13] was 110% and the cell viability [3, 14] was 104%. For the same compound, the cell viability [3, 15] was 102%, the cell viability [3, 16] was 88.5% and the cell viability [3, 17] was 93.2%. The cell viability [3, 18] was 130%, the cell viability [3, 19] was 120% and the cell viability [3, 20] was 118%. For the same compound, the cell viability [3, 21] was 112%, the cell viability [3, 22] was 117% and the cell viability [3, 23] was 126%. It also gave a cell viability [3, 24] of 114%, a cell viability [3, 25] of 95.7% and a cell viability [3, 26] of 97.5%. The cell viability [3, 27] was 105%, the cell viability [3, 28] was 118% and the cell viability [3, 29] was 121%. For the same compound, the cell viability [3, 30] was 138%, the cell viability [3, 31] was 122% and the cell viability [3, 32] was 116%. For the same compound, the cell viability [3, 33] was 108%, the cell viability [3, 34] was 121% and the cell viability [3, 35] was 101%. It also gave a cell viability [3, 36] of 81.1%, a cell viability [3, 37] of 107% and a cell viability [3, 38] of 106%. For the same compound, the cell viability [3, 39] was 128%, the “AUC of viability dose-response curve” value ([4]; HPLM + 10% dialyzed FBS) was 461 and the “AUC of viability dose-response curve” value ([4]; RPMI 5 mM glucose + 10% FBS) was 459. The “AUC of viability dose-response curve” value [4, 40] was 458, the “AUC of viability dose-response curve” value ([5]; HPLM + 10% dialyzed FBS) was 460 and the “AUC of viability dose-response curve” value ([5]; RPMI 5 mM glucose + 10% FBS) was 437. The “AUC of viability dose-response curve” value [5, 40] was 445, the “AUC of viability dose-response curve” value ([6]; HPLM + 10% dialyzed FBS) was 448 and the “AUC of viability dose-response curve” value ([6]; RPMI 5 mM glucose + 10% FBS) was 452. For the same compound, the “AUC of viability dose-response curve” value [6, 40] was 418.
